These results are taken from PMC6150406, “Adding an Artificial Tail—Anchor to a Peptide-Based HIV-1 Fusion Inhibitor for Improvement of Its Potency and Resistance Profile” (Molecules : A Journal of Synthetic Chemistry and Natural …, 2017).

The target in series [1] is T1, 6-HB formation between N46 and C34 (Human immunodeficiency virus type 1 group M subtype B, UniProt P04578).
T1 construct: NHR peptide N46 (aa 536-581 of NHR)
Description: Inhibition of 6-HB formation between N46 and C34 (ELISA, NC-1). The format is biochemical, HIV-1. The conditions noted are these: ELISA with NC-1 mAb; 1 μM N46; 37 °C 30 min then 1 h; A450. The protocol:
The inhibitory activity of peptides on 6-HB formation was measured by a modified ELISA as previously described. Briefly, a 96-well polystyrene plate (Costar, Corning Inc., Corning, NY, USA) was coated with 50 μL 2 μg/mL NY364 (a polyclonal antibody for HIV-1 gp41 subunit) in 0.1 M Tris buffer (pH 8.8). A mixture of 1 μM N46 and C-peptide with graded concentrations was added to the coated plate after incubation at 37 °C for 30 min. After another 1 hour incubation at 37 °C, the plate was washed with washing buffer (PBS containing 0.1% Tween 20) three times and refilled by 50 μL 1 μg/mL NC-1 (a monoclonal antibody specific for HIV-1 gp41 6-HB formed by NHR and CHR). Afterwards, 50 μL of horseradish peroxidase (HRP)-labeled rabbit anti-mouse antibody (Sigma, St. Louis, MO, USA) (1:4000 diluted) were added to the wells of plate, followed by incubation for 1 h and washing. Finally, the substrate 3,3,5,5-tetramethylbenzidine (TMB, Sigma, St. Louis, MO, USA) was added. Absorbance at 450 nm (A450) was tested by an ELISA reader (Ultra 384, Tecan, NC, USA).
(In an ELISA, binding on a coated surface is turned into a signal by an enzyme label.)

In series [2] the test system is cell–cell fusion between H9/HIV-1IIIB cells and MT-2 cells. The following applies: read-out: IC50, cell–cell fusion; H9/HIV-1IIIB (Calcein AM) with MT-2 cells, 37 °C, 2 h. As to the method:
A dye transfer assay was used to detect HIV-1 Env-mediated cell-cell fusion as described previously. […] For each well of the 96-well plate, 50 μL 2 × 10^4/mL labeled H9/HIV-1IIIB cells were then incubated with 100 μL 1 × 10^5/mL MT-2 cells at 37 °C for 2 h in the presence or absence of the tested peptide at graded concentrations. […] The IC50 values were calculated by using the Calcusyn computer program (Biosoft, Ferguson, MO, USA).

Series [3] concerns 90US_873 (B, R5). The conditions noted are these: clinical isolate 90US_873 (B, R5); CEMx174 5.25 M7 cells, p24 ELISA day 7. As to the method:
(§1) Inhibitory activities of peptides on infection by laboratory-adapted HIV-1 X4 strain IIIB and HIV-1 R5 strain Bal, and HIV-1 clinical strains, as well as T20-, T2635- and HP23-resistant strains, were determined as described previously. For each well of the 96-well plate, 104 MT-2 cells or CEMx174 5.25 M7 cells with graded concentrations of peptide were infected by […] TCID50 of the HIV-1 virus X4 or R5 strains, respectively. After overnight culture, the medium was replaced with fresh RPMI 1640 medium containing 10% FBS. Fifty microliters of culture supernatant were collected from each well on the fourth day for MT-2 cells and the seventh day for CEMx174 5.25 M7 cells. The supernatant was mixed with equal volumes of 5% Triton X-100. The p24 antigen was detected by ELISA as previously described. IC50 values were calculated using the Calcusyn software program (Biosoft, Ferguson, MO, USA).

Series [4] has as its system 92TH009 (A/E, R5). The following applies: clinical isolate 92TH009 (A/E, R5); CEMx174 5.25 M7 cells, p24 ELISA day 7. The protocol: as §1
Series [5] has as its system 92UG024 (D, X4). The conditions noted are these: clinical isolate 92UG024 (D, X4); MT-2 cells, p24 ELISA day 4. The protocol: as §1
Series [6] concerns 93BR020 (F, X4/R5). The following applies: clinical isolate 93BR020 (F, X4/R5); p24 ELISA. As to the method:
as §1

For series [7], the system named is 93IN101 (C, R5). The following applies: clinical isolate 93IN101 (C, R5); CEMx174 5.25 M7 cells, p24 ELISA day 7. As to the method: as §1
Series [8] relates to BK132/GS009 (B, X4). The conditions noted are these: clinical isolate BK132/GS009 (B, X4); MT-2 cells, p24 ELISA day 4. The protocol:
as §1

Series [9] relates to HIV-1 A6V. The conditions noted are these: T2635-resistant A6V; p24 ELISA. The protocol:
as §1

The test system of series [10] is HIV-1 Bal (R5 virus). The following applies: read-out: IC50, HIV-1 Bal infection; CEMx174 5.25 M7 cells; p24 ELISA, seventh day. The protocol:
as §1

For series [11], the system named is HIV-1 D36G/E49K/N126K. The conditions noted are these: HP23-resistant D36G/E49K/N126K; p24 ELISA. As to the method:
as §1

The test system of series [12] is HIV-1 E49K/N126K. The following applies: HP23-resistant E49K/N126K; p24 ELISA. The protocol:
as §1

The subject of series [13] is HIV-1 E49K. The conditions noted are these: HP23-resistant E49K; p24 ELISA. The protocol: as §1
For series [14], the system named is HIV-1 H3C. The following applies: T2635-resistant H3C; p24 ELISA. As to the method: as §1
The subject of series [15] is HIV-1 IIIB (X4 virus). The following applies: read-out: IC50, HIV-1 IIIB infection; MT-2 cells; p24 ELISA, fourth day. As to the method: as §1
In series [16] the test system is HIV-1 K154Q. The conditions noted are these: T2635-resistant K154Q; p24 ELISA. The protocol:
as §1

In series [17] the test system is HIV-1 K90E/N126K. The following applies: T2635-resistant K90E/N126K; p24 ELISA. As to the method: as §1
The subject of series [18] is HIV-1 K90E. The following applies: T2635-resistant K90E; p24 ELISA. The protocol: as §1
The test system of series [19] is HIV-1 L34S/D36G/E49K/E136G. The following applies: HP23-resistant L34S/D36G/E49K/E136G; p24 ELISA. The protocol: as §1
Series [20] concerns HIV-1 N113E. The following applies: T2635-resistant N113E; p24 ELISA. As to the method: as §1
In series [21] the test system is HIV-1 N126K. The conditions noted are these: T2635-resistant N126K; p24 ELISA. The protocol:
as §1

Series [22] has as its system HIV-1 Q66R/N113E. The following applies: T2635-resistant Q66R/N113E; p24 ELISA. As to the method: as §1
The test system of series [23] is HIV-1 Q66R. The conditions noted are these: T2635-resistant Q66R; p24 ELISA. The protocol:
as §1

Series [24] concerns HIV-1 Q79E/N126K. The following applies: T2635-resistant Q79E/N126K; p24 ELISA. As to the method: as §1
For series [25], the system named is HIV-1 Q79E. The following applies: T2635-resistant Q79E; p24 ELISA. As to the method: as §1
In series [26] the test system is HIV-1 V38A, N42D. The following applies: T20-resistant V38A, p24 ELISA. The protocol:
as §1

Series [27] relates to HIV-1 V38A, N42T. The following applies: T20-resistant V38A, p24 ELISA. The protocol: as §1
Series [28] relates to HIV-1 V38A. The conditions noted are these: T20-resistant V38A; p24 ELISA. As to the method:
as §1

Series [29] has as its system HIV-1 V38E, N42S. The following applies: T20-resistant V38E, p24 ELISA. The protocol:
as §1

Series [30] relates to HIV-1 WT. The conditions noted are these: WT of T20-resistant panel; p24 ELISA. The protocol:
as §1

Series [31] has as its system HIV-1 wild-type. The conditions noted are these: p24 ELISA. As to the method:
as §1

The subject of series [32] is KER2018 (A, R5). The conditions noted are these: clinical isolate KER2018 (A, R5); CEMx174 5.25 M7 cells, p24 ELISA day 7. As to the method:
as §1

The test system of series [33] is KNH1135 (A, R5). The following applies: clinical isolate KNH1135 (A, R5); CEMx174 5.25 M7 cells, p24 ELISA day 7. The protocol:
as §1

Series [34] relates to NP1525 (A/E, X4/R5). The conditions noted are these: clinical isolate NP1525 (A/E, X4/R5); p24 ELISA. As to the method: as §1
Series [35] has as its system US4GS007 (B, R5). The conditions noted are these: clinical isolate US4GS007 (B, R5); CEMx174 5.25 M7 cells, p24 ELISA day 7. The protocol: as §1
The conditions of series [36]: clinical use; cited from earlier work.

Read-outs that look alike come from different tables or passages of the source. Where a SMILES comes first, the peptide text is derived from it.

T1 sequence (P04578 536-581): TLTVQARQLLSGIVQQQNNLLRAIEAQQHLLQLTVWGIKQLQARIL

The term IC50 denotes the concentration that gives 50% inhibition. As to `CC[C@H](C)[C@H](NC(=O)[C@H](CCC(=O)O)NC(=O)[C@H](CCC(=O)O)NC(=O)[C@@H](NC(=O)[C@H](CCCCN)NC(=O)[C@H](CCCCN)NC(=O)[C@@H](NC(=O)[C@H](Cc1ccc(O)cc1)NC(=O)[C@H](CCC(=O)O)NC(=O)[C@H](CCC(=O)O)NC(=O)[C@@H](NC(=O)[C@H](CCCCN)NC(=O)[C@H](CCCCN)NC(=O)[C@H](CCC(=O)O)NC(=O)[C@H](Cc1c[nH]c2ccccc12)NC(=O)[C@H](CCC(=O)O)NC(=O)[C@H](CCC(=O)O)NC(=O)[C@H](Cc1c[nH]c2ccccc12)NC(=O)[C@@H](NC(=O)[C@H](CCSC)NC(=O)[C@@H](N)CCC(=O)O)[C@@H](C)O)[C@@H](C)CC)[C@@H](C)O)[C@@H](C)CC)C(=O)N[C@@H](CC(C)C)C(=O)N[C@@H](CCCCN)C(=O)O` [HP23] (H-EMTWEEWEKKIEEYTKKIEEILK-OH), the IC50 is 3720 nM in [1]; 5.12 nM in series [2]; 3.4 ± 0.6 nM in series [3]; 0.8 ± 0.2 nM in series [4]; 3.5 ± 0.2 nM in series [5]; 4.5 ± 0.2 nM in [6]. For the same compound, the IC50 in series [7] was 3.7 ± 0.3 nM; in series [8], 7.2 ± 0.5 nM; in series [9] it was 1.6 ± 0.5 nM; in series [10], 5.96 nM; in [11], > 60 nM; in series [12], 53.8 ± 1.2 nM. The IC50 worked out at 13.4 ± 0.7 nM in series [13]; 5.4 ± 0.4 nM in series [14]; 1.68 nM in [15]; 7.4 ± 0.4 nM in [16]; 4.2 ± 0.3 nM in series [17]; 9.4 ± 0.3 nM in [18]. Also, the IC50 was > 60 nM in series [19]; 2.3 ± 0.5 nM in series [20]; 8.6 ± 0.4 nM in [21]; 3.6 ± 0.3 nM in [22]; 2.8 ± 0.1 nM in series [23]; 5.2 ± 0.4 nM in [24]. Further, the IC50 in series [25] worked out at 4.2 ± 0.7 nM; in series [26] it was 2.9 ± 0.3 nM; in [27], 1.5 ± 0.3 nM; in [28] it was 2.1 ± 0.7 nM; in [29], 6.2 ± 0.3 nM; in series [30], 3.1 ± 0.1 nM. Further, the IC50 in [31] (wild-type of HP23-resistant panel) worked out at 3.3 ± 0.3 nM; in series [31] (wild-type of T2635-resistant panel), 2.8 ± 0.2 nM; in [32] it was 1.9 ± 0.2 nM; in [33] it was 2.2 ± 0.3 nM; in series [34] it was 9.5 ± 0.6 nM; in [35], 3.9 ± 0.6 nM.

On to enfuvirtide, for which, in series [2], the IC50 was 16.6 nM. Also, in [36], the “half-life (in words)” value is given as “short half-life” and the “oral bioavailability (in words)” value is listed as “lack of oral bioavailability”.
